Target: human, KCNT1 (Homo sapiens (Human), UniProt Q5JUK3)
Experiment: FLIPR Tl/K Flux Assay
Format: cell-based
Conditions: HEK293 cells stably expressing human KCNT1; Tl+ flux stimulated with EC80 of agonist Loxapine
Outline: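 Inhibition values come from a Hill-equation fit of % inhibition versus log concentration, using normalized fluorescence (Fmax/Fmin) over a 160 s read. The read followed stimulation with Tl+ plus EC80 agonist loxapine after 30 min compound pre-incubation at 25 °C. Cells were KCNT1-expressing HEK293, dye-loaded 1 h in pH 7.4 HEPES/HBSS with 5 mM probenecid.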

human, KCNT1, sequence (Q5JUK3 whole entry): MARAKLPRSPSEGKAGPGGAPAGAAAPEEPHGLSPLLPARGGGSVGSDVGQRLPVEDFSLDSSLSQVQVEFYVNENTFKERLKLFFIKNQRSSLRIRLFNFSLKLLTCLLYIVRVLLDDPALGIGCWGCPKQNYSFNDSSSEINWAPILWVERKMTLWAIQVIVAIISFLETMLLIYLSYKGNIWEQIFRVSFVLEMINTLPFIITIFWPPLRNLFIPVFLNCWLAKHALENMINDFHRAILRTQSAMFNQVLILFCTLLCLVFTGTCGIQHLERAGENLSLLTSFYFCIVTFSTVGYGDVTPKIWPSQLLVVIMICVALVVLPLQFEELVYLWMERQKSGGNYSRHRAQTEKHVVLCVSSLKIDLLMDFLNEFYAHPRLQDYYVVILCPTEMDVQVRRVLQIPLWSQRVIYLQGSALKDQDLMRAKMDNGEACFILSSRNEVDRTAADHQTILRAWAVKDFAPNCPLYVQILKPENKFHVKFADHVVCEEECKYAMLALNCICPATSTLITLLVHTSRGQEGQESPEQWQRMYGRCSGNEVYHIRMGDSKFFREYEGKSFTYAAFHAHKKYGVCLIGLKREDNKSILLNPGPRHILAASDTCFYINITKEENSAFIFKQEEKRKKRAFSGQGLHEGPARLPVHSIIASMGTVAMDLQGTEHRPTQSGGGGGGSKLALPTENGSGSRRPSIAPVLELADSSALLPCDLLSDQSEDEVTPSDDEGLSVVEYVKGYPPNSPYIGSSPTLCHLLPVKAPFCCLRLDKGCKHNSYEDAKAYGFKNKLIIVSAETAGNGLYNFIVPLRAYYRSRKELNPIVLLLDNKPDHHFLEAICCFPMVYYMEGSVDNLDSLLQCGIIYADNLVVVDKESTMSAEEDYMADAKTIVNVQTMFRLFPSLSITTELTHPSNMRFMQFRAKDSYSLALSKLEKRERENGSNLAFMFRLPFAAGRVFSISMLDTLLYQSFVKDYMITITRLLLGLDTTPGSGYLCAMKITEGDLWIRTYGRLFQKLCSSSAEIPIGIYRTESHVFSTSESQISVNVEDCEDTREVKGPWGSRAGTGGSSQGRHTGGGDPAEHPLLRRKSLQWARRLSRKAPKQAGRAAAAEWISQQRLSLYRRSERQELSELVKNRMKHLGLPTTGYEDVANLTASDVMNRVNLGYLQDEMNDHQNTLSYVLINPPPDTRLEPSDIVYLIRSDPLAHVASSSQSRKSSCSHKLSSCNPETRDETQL

SMILES	IC50
Cn1nc(C(F)(F)F)cc1C(=O)N[C@H]1CCCc2oc(-c3cc(C4CC4)ncc3F)nc21 [Compound I-217a, (S)-N-(2-(2-Cyclopropyl-5-fluoropyridin-4-yl)-4,5,6,7-tetrahydrobenzo[d]oxazol-4-yl)-1-methyl-3-(trifluoromethyl)-1H-pyrazole-5-carboxamide]	< 250 nM
Cc1nc(C(=O)N[C@H]2CCn3nc(-c4ccnc(C5CC5)c4)cc32)n(C)n1 [Compound I-218a, (S)-N-(2-(2-Cyclopropylpyridin-4-yl)-5,6-dihydro-4H-pyrrolo[1,2-b]pyrazol-4-yl)-1,3-dimethyl-1H-1,2,4-triazole-5-carboxamide]	250 to 500 nM
CC1(C)C[C@H](NC(=O)c2cccc(C#N)c2)c2cc(-c3ccnc(C(F)(F)F)c3)nn2C1 [Compound I-220a, (S)-3-Cyano-N-(6,6-dimethyl-2-(2-(trifluoromethyl)pyridin-4-yl)-4,5,6,7-tetrahydropyrazolo[1,5-a]pyridin-4-yl)benzamide]	250 to 500 nM
Cn1nc(C2CC2)nc1C(=O)N[C@H]1CCCc2oc(-c3ccnc(C4CC4)c3)nc21 [Compound I-223a, (S)-3-Cyclopropyl-N-(2-(2-cyclopropylpyridin-4-yl)-4,5,6,7-tetrahydrobenzo[d]oxazol-4-yl)-1-methyl-1H-1,2,4-triazole-5-carboxamide]	< 250 nM
O=C(N[C@H]1CCn2nc(-c3ccnc(C(F)(F)F)c3)cc21)c1ccnc(OC(F)F)c1 [Compound I-226a, (S)-2-(Difluoromethoxy)-N-(2-(2-(trifluoromethyl)pyridin-4-yl)-5,6-dihydro-4H-pyrrolo[1,2-b]pyrazol-4-yl)isonicotinamide]	< 250 nM
Cn1ncnc1C(=O)N[C@H]1CCCc2oc(-c3ccnc(C4CC4)c3)nc21 [Compound I-228a, (S)-N-(2-(2-Cyclopropylpyridin-4-yl)-4,5,6,7-tetrahydrobenzo[d]oxazol-4-yl)-1-methyl-1H-1,2,4-triazole-5-carboxamide]	> 1000 nM
Cn1nc(C(F)(F)F)nc1C(=O)N[C@H]1CCCc2oc(-c3ccnc(C4CC4)c3)nc21 [Compound I-229a, (S)-N-(2-(2-Cyclopropylpyridin-4-yl)-4,5,6,7-tetrahydrobenzo[d]oxazol-4-yl)-1-methyl-3-(trifluoromethyl)-1H-1,2,4-triazole-5-carboxamide]	< 250 nM
COc1cc(-c2cc3n(n2)CC[C@@H]3NC(=O)c2nc(C)nn2C)ccn1 [Compound I-230a, (S)-N-(2-(2-Methoxypyridin-4-yl)-5,6-dihydro-4H-pyrrolo[1,2-b]pyrazol-4-yl)-1,3-dimethyl-1H-1,2,4-triazole-5-carboxamide]	> 1000 nM
O=C(N[C@H]1CCCc2oc(-c3ccnc(C4CC4)c3)nc21)c1cncc(C(F)(F)F)n1 [Compound I-231a]	< 250 nM
Cn1nc(C(F)(F)F)cc1C(=O)N[C@H]1CCn2nc(-c3ccnc(OC(F)F)c3)cc21 [Compound I-233a, (S)-N-(2-(2-(Difluoromethoxy)pyridin-4-yl)-5,6-dihydro-4H-pyrrolo[1,2-b]pyrazol-4-yl)-1-methyl-3-(trifluoromethyl)-1H-pyrazole-5-carboxamide]	< 250 nM
Cc1cnc(C(F)(F)F)cc1-n1cc2c(n1)CC[C@@H]2NC(=O)c1cccc(C#N)c1 [Compound I-235a, (S)-3-Cyano-N-(2-(5-methyl-2-(trifluoromethyl)pyridin-4-yl)-2,4,5,6-tetrahydrocyclopenta[c]pyrazol-4-yl)benzamide]	< 250 nM
COc1cc(-c2cc3n(n2)CC[C@@H]3NC(=O)c2nc(C(F)(F)F)nn2C)ccn1 [Compound I-237a, (S)-N-(2-(2-Methoxypyridin-4-yl)-5,6-dihydro-4H-pyrrolo[1,2-b]pyrazol-4-yl)-1-methyl-3-(trifluoromethyl)-1H-1,2,4-triazole-5-carboxamide]	< 250 nM
O=C(N[C@H]1CCCc2oc(-c3ccnc(C4CC4)c3)nc21)c1cccc(C(F)(F)F)c1 [Compound I-238a, (S)-N-(2-(2-Cyclopropylpyridin-4-yl)-4,5,6,7-tetrahydrobenzo[d]oxazol-4-yl)-3-(trifluoromethyl)benzamide]	< 250 nM
COc1cc(-c2cc3n(n2)CC[C@@H]3NC(=O)c2cn(C(F)(F)F)nc2C)ccn1 [Compound I-240a, (S)-N-(2-(2-Methoxypyridin-4-yl)-5,6-dihydro-4H-pyrrolo[1,2-b]pyrazol-4-yl)-3-methyl-1-(trifluoromethyl)-1H-pyrazole-4-carboxamide]	< 250 nM
Cc1cc(C(=O)N[C@H]2CCCc3oc(-c4ccnc(C5CC5)c4)nc32)cc(C(F)(F)F)c1 [Compound I-242a, (S)-N-(2-(2-Cyclopropylpyridin-4-yl)-4,5,6,7-tetrahydrobenzo[d]oxazol-4-yl)-3-methyl-5-(trifluoromethyl)benzamide]	< 250 nM
CCc1cc(C#N)cc(C(=O)N[C@H]2CCCCn3nc(-c4ccnc(C(F)(F)F)c4)cc32)c1 [Compound I-244a, (S)-3-Cyano-5-ethyl-N-(2-(2-(trifluoromethyl)pyridin-4-yl)-5,6,7,8-tetrahydro-4H-pyrazolo[1,5-a]azepin-4-yl)benzamide]	< 250 nM

The remaining lines, values ahead:

IC50	SMILES
> 1000 nM	Cn1nc(C(F)(F)F)cc1C(=O)N[C@H]1CC(C)(C)Cn2nc(-c3ccnc(C(F)(F)F)c3)cc21 [Compound I-219a, (S)—N-(6,6-Dimethyl-2-(2-(trifluoromethyl)pyridin-4-yl)-4,5,6,7-tetrahydropyrazolo[1,5-a]pyridin-4-yl)-1-methyl-3-(trifluoromethyl)-1H-pyrazole-5-carboxamide]
< 250 nM	Cc1nc(C(=O)N[C@H]2CCn3nc(-c4ccnc(C(F)(F)F)c4)cc32)n(C)n1 [Compound I-221a, (S)-1,3-Dimethyl-N-(2-(2-(trifluoromethyl)pyridin-4-yl)-5,6-dihydro-4H-pyrrolo[1,2-b]pyrazol-4-yl)-1H-1,2,4-triazole-5-carboxamide]
< 250 nM	COc1cc(-c2cc3n(n2)CCC[C@@H]3NC(=O)c2cccc(C#N)c2)c(C)cn1 [Compound I-222a, (S)-3-Cyano-N-(2-(2-methoxy-5-methylpyridin-4-yl)-4,5,6,7-tetrahydropyrazolo[1,5-a]pyridin-4-yl)benzamide]
< 250 nM	Cn1nc(C2CC2)nc1C(=O)N[C@H]1CCn2nc(-c3ccnc(C(F)(F)F)c3)cc21 [Compound I-224a, (S)-3-Cyclopropyl-1-methyl-N-(2-(2-(trifluoromethyl)pyridin-4-yl)-5,6-dihydro-4H-pyrrolo[1,2-b]pyrazol-4-yl)-1H-1,2,4-triazole-5-carboxamide]
> 1000 nM	Cn1ncnc1C(=O)N[C@H]1CCn2nc(-c3ccnc(C(F)(F)F)c3)cc21 [Compound I-225a]
> 1000 nM	Cc1nc(C(=O)N[C@H]2CCCc3oc(-c4ccnc(C5CC5)c4)nc32)n(C)n1 [Compound I-227a, (S)-N-(2-(2-Cyclopropylpyridin-4-yl)-4,5,6,7-tetrahydrobenzo[d]oxazol-4-yl)-1,3-dimethyl-1H-1,2,4-triazole-5-carboxamide]
< 250 nM	N#Cc1cccc(C(=O)N[C@H]2CCCc3oc(-c4ccnc(C5CC5)c4)nc32)c1 [Compound I-232a, (S)-3-Cyano-N-(2-(2-cyclopropylpyridin-4-yl)-4,5,6,7-tetrahydrobenzo[d]oxazol-4-yl)benzamide]
< 250 nM	O=C(N[C@H]1CCCn2nc(-c3ccnc(C(F)(F)F)c3)nc21)c1cc(F)cc(F)c1 [Compound I-234a, (S)-3,5-Difluoro-N-(2-(2-(trifluoromethyl)pyridin-4-yl)-5,6,7,8-tetrahydro-[1,2,4]triazolo[1,5-a]pyridin-8-yl)benzamide]
< 250 nM	Cc1cnc(C(F)(F)F)cc1-c1cc2n(n1)CC[C@@H]2NC(=O)c1cc(C(F)(F)F)nn1C [Compound I-236a, (S)-1-Methyl-N-(2-(5-methyl-2-(trifluoromethyl)pyridin-4-yl)-5,6-dihydro-4H-pyrrolo[1,2-b]pyrazol-4-yl)-3-(trifluoromethyl)-1H-pyrazole-5-carboxamide]
< 250 nM	COc1cc(-c2cc3n(n2)CCC[C@@H]3NC(=O)c2cccc(C#N)c2)c(Cl)cn1 [Compound I-239a, (S)-N-(2-(5-Chloro-2-methoxypyridin-4-yl)-4,5,6,7-tetrahydropyrazolo[1,5-a]pyridin-4-yl)-3-cyanobenzamide]
< 250 nM	Cn1nc(C(F)(F)F)nc1C(=O)N[C@H]1CCCc2oc(-c3ccnc(C(F)(F)F)c3)nc21 [Compound I-241a, (S)-1-Methyl-3-(trifluoromethyl)-N-(2-(2-(trifluoromethyl)pyridin-4-yl)-4,5,6,7-tetrahydrobenzo[d]oxazol-4-yl)-1H-1,2,4-triazole-5-carboxamide]
< 250 nM	COc1cc(-c2cc3n(n2)CC[C@@H]3NC(=O)c2cc(C(F)(F)F)nn2C)c(F)cn1 [Compound I-243a, (S)-N-(2-(5-Fluoro-2-methoxypyridin-4-yl)-5,6-dihydro-4H-pyrrolo[1,2-b]pyrazol-4-yl)-1-methyl-3-(trifluoromethyl)-1H-pyrazole-5-carboxamide]
< 250 nM	CCc1cc(C#N)cc(C(=O)N[C@H]2CCCn3nc(-c4ccnc(C(F)(F)F)c4)cc32)c1 [Compound I-245a, (S)-3-Cyano-5-ethyl-N-(2-(2-(trifluoromethyl)pyridin-4-yl)-4,5,6,7-tetrahydropyrazolo[1,5-a]pyridin-4-yl)benzamide]
< 250 nM	CCc1cc(C#N)cc(C(=O)N[C@H]2CCc3nn(-c4ccnc(C(F)(F)F)c4)cc32)c1 [Compound I-246a, (S)-3-Cyano-5-ethyl-N-(2-(2-(trifluoromethyl)pyridin-4-yl)-2,4,5,6-tetrahydrocyclopenta[c]pyrazol-4-yl)benzamide]
> 1000 nM	Cn1nc(C(F)(F)F)cc1C(=O)N[C@H]1CCCc2c1nc(-c1ccnc(C(F)(F)F)c1)n2C [Compound I-247a, (S)-1-Methyl-N-(1-methyl-2-(2-(trifluoromethyl)pyridin-4-yl)-4,5,6,7-tetrahydro-1H-benzo[d]imidazol-4-yl)-3-(trifluoromethyl)-1H-pyrazole-5-carboxamide]
< 250 nM	COc1cc(-c2nc3c(o2)CCC[C@@H]3NC(=O)c2cc(C)cc(C(F)(F)F)c2)ccn1 [Compound I-248a]

From patent publication US20250313548A1 (Actio Biosciences, Inc., priority 2023, published 2025)
